Where two headings read alike, the source gives them in different places.
Biological target: mu-opioid receptor (MOR) (Homo sapiens (Human), UniProt P35372)
Assay: cell-based
Conditions: for AUC: AUC of [Ca2+]i fluorescence, CHO-K1/MOR/Gα15 cells
Description: In an exemplary in vitro screening method for identifying antagonist-to-agonist allosteric modifiers of a MOR, cells that express a MOR are treated with a test compound and a MOR antagonist in a cellular calcium fluorescent assay and fluorescence intensity is then measured to determine whether the MOR is activated. A test compound is identified as an antagonist-to-agonist allosteric modifier of the MOR if the MOR is activated.
EC50 herein refers to the concentration of a compound that induces a response halfway between the baseline and the maximum after a specified exposure time. AUC refers to the area under the response curve, an indication of the compound's capability of activating a MOR when combined with a MOR antagonist.
Human embryonic kidney 293 (HEK-293) cells constitutively expressing MOR (HEK-MOR) and DOR (HEK-DOR) (kindly provided by Dr. Ping-Yee Law, University of Minnesota, USA) were cultured in high-glucose Dulbecco's modified Eagle's medium (DMEM, GIBCO) supplemented with 400 μg/mL G418 (Sigma), 2 mM L-glutamine and P/S/F (100 units/mL penicillin, 100 μg/mL streptomycin, 10% fetal bovine serum). Chinese hamster ovary (CHO)-K1 cells, stably expressing hMOR and Gα15 (CHO-K1/MOR/Gα15), were cultured in F12 medium (GIBCO) supplemented with 10 μg/mL Hygromycin B (Invivogen), 20 μg/mL Zeocin (Invivogen) P/S/F (100 units/mL penicillin, 100 μg/mL streptomycin, 10% fetal bovine serum). The cultures were incubated at 37° C. in a humidified 5% CO2 incubator.
One day before the assay, CORNING® black with clear flat bottom 96-well assay plates were coated with a 0.1 mg/mL Poly-L-Lysine solution. CHO-K1/MOR/Gα15 cells were suspended in the F12 medium and plated at a density of ˜8×10^4 cells/well in 200 μL medium. Cells were incubated in a humidified atmosphere of 10% CO2 at 37° C. overnight so as to reach an 80-90% confluent cell monolayer before assay. At the day of assay, 150 μL medium/well was removed from plate. To each well, 50 μL FLIPR® calcium assay reagent dissolved in 1× assay buffer (HBSS: KCl 5 mM, KH2PO4 0.3 mM, NaCl 138 mM, NaHCO3 4 mM, Na2HPO4 0.3 mM, d-glucose 5.6 mM, with additional 20 mM HEPES and 13 mM CaCl2, pH 7.4), with 2.5 mM probenecid was added and the plate was incubated at 37° C. for 1 h. Compounds and other reagents were dissolved in the assay buffer. Using a FlexStationIII (Molecular Devices Corp.), the [Ca^2+]i fluorescence increases after robotic injections of compounds or other reagents were monitored every 1.52 s interval with excitation wavelength at 485 nm and with emission wavelength at 525 nm. The [Ca^2+]i fluorescence was measured up to 90 s after agonist injection.
A CHO-K1 cell line, expressing a MOR and Gα15 (GenScript), was used to set up a sensitive high-throughput screen (HTS) system. In a FLIPR® calcium assay using CHO-K1/MOR/Gα15 cells, activation of MOR elicits an intracellular calcium release leading to an increase in the relative fluorescence units (FRU). […] The HTS was performed in the absence or presence of an opioid antagonist, naloxone (25 nM), to identify antagonist to agonist allosteric modifiers (AAM).
A CHO-K1 cell line, expressing a MOR and Gα15 (GenScript), was used to set up a sensitive assay system for detecting μ-opioid receptor activation. […] The assay was performed in the presence of an opioid antagonist, i.e., naloxone (25 nM), naltrexone (20 nM), samidorphan (10 nM), naloxonazine dihydrochloride (20 nM), β-funaltrexamine hydrochloride (20 nM), cyprodime hydrochloride (500 nM), or nalmefene (20 nM), in combination with compound 58, an antagonist to agonist allosteric modifier (AAM), to identify activation of the μ-opioid receptor.

[1] = combined with a MOR antagonist, read-out: FLIPR Ca^2+ EC50
[2] = EC50, CHO-K1/MOR/Gα15 cells, combined with a MOR antagonist

mu-opioid receptor (MOR), sequence (P35372 whole entry): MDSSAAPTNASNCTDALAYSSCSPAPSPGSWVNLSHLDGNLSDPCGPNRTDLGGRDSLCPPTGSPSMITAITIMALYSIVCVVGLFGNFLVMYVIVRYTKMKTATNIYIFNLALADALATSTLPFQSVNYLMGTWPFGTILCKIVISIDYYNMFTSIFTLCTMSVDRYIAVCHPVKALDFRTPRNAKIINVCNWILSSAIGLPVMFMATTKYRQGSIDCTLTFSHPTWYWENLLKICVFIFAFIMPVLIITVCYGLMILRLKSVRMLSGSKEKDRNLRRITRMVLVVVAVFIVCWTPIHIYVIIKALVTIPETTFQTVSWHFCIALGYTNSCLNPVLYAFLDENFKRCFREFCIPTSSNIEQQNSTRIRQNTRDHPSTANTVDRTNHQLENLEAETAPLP

Row | SMILES | AUC (combined with a MOR antagonist) | FLIPR Ca^2+ AUC (combined with a MOR antagonist) | EC50 [1] [µM] | EC50 [2] [µM] | EC50 (FLIPR Ca^2+ EC50, combined with a MOR antagonist) [µM]
1 | COC(=O)c1ccc(N2C(=O)CSC2c2ccoc2)c(C)c1 (stereo not drawn) [Example 416] | more than 5000 | 6514 | 11.7 |  | 
2 | COc1ccc(N2C(=O)CSC2c2ccc(F)cc2)c(OC)c1 (stereo not drawn) [Example 8, 3-(2,4-Dimethoxyphenyl)-2-(4-fluorophenyl)thiazolidin-4-one] |  |  |  | < 10 | 
3 | CCS(=O)(=O)NC(=O)c1ccc(N2C(=O)CSC2c2ccc(F)cc2)c(C)c1 (stereo not drawn) [Example 162] | more than 5000 | 13767 | 9.1 | < 10 | 
4 | Cc1cc(C(=O)OCCCN2CCCCC2)ccc1N1C(=O)CSC1c1ccc(F)cc1 (stereo not drawn) [Example 298] |  | 9283 | 1.7 |  | 
5 | COc1ccccc1NC(=O)c1ccc(N2C(=O)CSC2c2ccc(F)cc2)c(C)c1 (stereo not drawn) [Example 373] | more than 5000 | 12223 | 13.6 |  | 
6 | Cc1cc(C(=O)OCOC(=O)OC(C)C)ccc1N1C(=O)CSC1c1ccc(F)cc1 (stereo not drawn) [Example 314] |  |  |  | < 10 | 
7 | Cc1cc(-c2nnn[nH]2)ccc1N1C(=O)CSC1c1ccc(F)cc1 (stereo not drawn) [Example 221] |  | 8284 | 0.2 |  | 
8 | Cc1ccc(Br)cc1N1C(=O)CSC1c1ccc(F)cc1 (stereo not drawn) [Example 149] |  | 4427 | 4.4 | < 10 | 
9 | [2H]C1(c2ccc(F)cc2)SCC(=O)N1c1ccc(C(=O)O)cc1C (stereo not drawn) [Example 581, 4-[2-(4-Fluorophenyl)-4-oxo-2-d1-1,3-thiazolidin-3-yl]-3-methylbenzoic acid] |  | 13703 | 3.31 |  | 
10 | Cc1ccc(S(=O)(=O)NC(=O)c2ccc(N3C(=O)CSC3c3ccc(F)cc3)c(C)c2)cc1 (stereo not drawn) [Example 185] |  | 18048 | 0.6 |  | 
11 | Cc1cc(C(=O)NCCCN(C)C)ccc1N1C(=O)CSC1c1ccc(F)cc1 (stereo not drawn) [Example 342] |  | 16741 | 3.3 |  | 
12 | Cc1cc(C(=O)OC(C)C)ccc1N1C(=O)CSC1c1ccc(F)cc1 (stereo not drawn) [Example 231] |  |  |  | < 10 | 
13 | Cc1cc(C(=O)OCCCN(C)C)ccc1N1C(=O)CSC1c1ccc(F)cc1 (stereo not drawn) [Example 291] |  | 8913 | 1.9 |  | 
14 | Cc1cc(C(=O)NS(=O)(=O)C2CCCCC2)ccc1N1C(=O)CSC1c1ccc(F)cc1 (stereo not drawn) [Example 171] | more than 5000 | 10272 | 3.7 | < 10 | 
15 | CSCCOC(=O)c1ccc(N2C(=O)CSC2c2ccc(F)cc2)c(C)c1 (stereo not drawn) [Example 270] |  |  |  | < 10 | 
16 | Cc1cc(C(=O)NC2CCC2)ccc1N1C(=O)CSC1c1ccc(F)cc1 (stereo not drawn) [Example 337] |  | 8936 | 0.3 | < 10 | 
17 | [2H]c1c([2H])c(C2SCC(=O)N2c2ccc(C(=O)OCC)cc2C)c([2H])c([2H])c1F (stereo not drawn) [Example 580, Ethyl 4-{2-[4-fluoro-2,3,5,6-d4-phenyl]-4-oxo-1,3-thiazolidin-3-yl}-3-methylbenzoate] |  | 14441 |  |  | 4.26
18 | Cc1cc(C(=O)OCC2CCCC2)ccc1N1C(=O)CSC1c1ccc(F)cc1 (stereo not drawn) [Example 239] |  | 4342 | 9.4 | < 10 | 

Row | SMILES | AUC (combined with a MOR antagonist) | FLIPR Ca^2+ AUC (combined with a MOR antagonist) | EC50 [1] [µM] | EC50 [2] [µM] | EC50 (FLIPR Ca^2+ EC50, combined with a MOR antagonist) [µM]
19 | Cc1cc(C(=O)N(C)C)ccc1N1C(=O)CSC1c1ccc(F)cc1 (stereo not drawn) [Example 332] |  |  |  | < 10 | 
20 | Cc1cc(C)c(S(=O)(=O)NC(=O)c2ccc(N3C(=O)CSC3c3ccc(F)cc3)c(C)c2)c(C)c1 (stereo not drawn) [Example 192] | more than 5000 | 11866 | 1.4 | < 10 | 
21 | Cc1ccc(F)cc1N1C(=O)CSC1c1cccc(F)c1 (stereo not drawn) [Example 113] |  |  |  | < 10 | 
22 | Cc1cc(C(=O)OCCc2scnc2C)ccc1N1C(=O)CSC1c1ccc(F)cc1 (stereo not drawn) [Example 266] |  | 12653 | 4.6 |  | 
23 | Cc1c(F)cccc1N1C(=O)CSC1c1ccc(F)cc1 (stereo not drawn) [Example 109] |  | 9614 | 2.6 |  | 
24 | Cc1cc(C(=O)OC2CCN(C)C2)ccc1N1C(=O)CSC1c1ccc(F)cc1 (stereo not drawn) [Example 300] |  | 12918 | 1.6 |  | 
25 | CC(=O)Nc1ccc(S(=O)(=O)NC(=O)c2ccc(N3C(=O)CSC3c3ccc(F)cc3)c(C)c2)cc1 (stereo not drawn) [Example 202] | more than 5000 | 17087 | 0.6 | < 10 | 
26 | Cc1cc(C(=O)O)ccc1N1C(=O)CSC1c1cccc(C(F)(F)F)c1 (stereo not drawn) [Example 74] |  |  |  | < 10 | 
27 | Cc1cc(C(=O)NS(=O)(=O)c2ccc(F)cc2F)ccc1N1C(=O)CSC1c1ccc(F)cc1 (stereo not drawn) [Example 206] |  |  |  | < 10 | 
28 | COc1cc(C)c(N2C(=O)CSC2c2ccc(F)cc2)cc1OC (stereo not drawn) [Example 52] |  | 7780 | 3.6 |  | 
29 | Cc1cc(C(=O)NS(=O)(=O)c2ccccc2)ccc1N1C(=O)CSC1c1ccc(F)cc1 (stereo not drawn) [Example 183] | more than 5000 | 12230 | 1.9 | < 10 | 
30 | Cc1cc(C(=N)NO)ccc1N1C(=O)CSC1c1ccc(F)cc1 (stereo not drawn) [Example 151] | more than 5000 | 10591 | 3.4 | < 10 | 
31 | Cc1cc(-c2ccco2)ccc1N1C(=O)CSC1c1ccc(F)cc1 (stereo not drawn) [Example 224] | more than 5000 | 7384 | 11.7 |  | 
32 | Cc1ccc(C(=O)O)cc1N1C(=O)CSC1c1ccc(F)cc1 (stereo not drawn) [Example 54] |  | 8906 | 3.3 |  | 
33 | CCOC(=O)OC(C)OC(=O)c1ccc(N2C(=O)CSC2c2ccc(F)cc2)c(C)c1 (stereo not drawn) [Example 313, 3-(1,5-Dimethyl-3-oxo-2-phenyl-2,3-dihydro-1H-pyrazol-4-yl)-2-(4-(methylthi)phenyl)thiazolidin-4-one] |  |  |  | < 10 | 
34 | Cc1cc(C(=O)NS(=O)(=O)c2cccnc2)ccc1N1C(=O)CSC1c1ccc(F)cc1 (stereo not drawn) [Example 211] | more than 5000 | 8779 | 0.3 | < 10 | 
35 | Cc1cc(C(=O)NCc2cccc(C(F)(F)F)c2)ccc1N1C(=O)CSC1c1ccc(F)cc1 (stereo not drawn) [Example 377] |  | 12637 | 12.5 |  | 
36 | Cc1cc(C(=O)OC2COC(C)(C)OC2)ccc1N1C(=O)CSC1c1ccc(F)cc1 (stereo not drawn) [Example 277] |  | 14634 | 6.1 | < 10 | 

From patent US10544113B2 (priority 2016, dated 2020)
